Experimental data published in patent US20230338396A1, “CANNABIDIOL AS A T[…] FOR COVID-19” (AUGUSTA UNIVERSITY RESEARCH INSTITUTE, INC., priority 2020, published 2023).
Entries after “also recorded” stand apart in the source; their conditions may differ.

Experiments:
[1] = system: T cells; assay: CBD inhalers in healthy young and older subjects, T cells; assay type: in vivo; details: CBD inhaler, 20 mg of CBD for 120 min
[2] = system: Poly(I:C)-induced ARDS; assay: Poly(I:C)-induced ARDS in mice, apelin modulation by CBD (Example 2); assay type: in vivo, C57Bl/6 mice; details: CBD 5 mg/kg intraperitoneal, 3 doses, after Poly(I:C)
[3] = system: Poly(I:C)-induced ARDS; assay type: in vivo, C57BL/6 mice; details: CBD 5 mg/kg intraperitoneal
[4] = system: Acute Lung Injury (ALI); assay: Inhaled CBD in Acute Lung Injury (ALI)/ARDS murine model with Poly(I:C); assay type: in vivo
[5] = inhaled CBD compared to CBD injection
[6] = inhaled CBD, Poly(I:C)-treated mice

Question: For C=C(C)[C@@H]1CCC(C)=C[C@H]1c1c(O)cc(CCCCC)cc1O [CBD, cannabidiol], which “effects on T cells frequencies or functionality” value [1] is on record?
Answer: Its value is “no negative effects”.

Question: What about the “T cells in whole blood (flow cytometry)” value ([2]; blood) of the same molecule?
Answer: The value was “returned decreased T cells and increased neutrophils towards the normal level”.

Question: What about the “apelin expression in blood (flow cytometry)” value ([2]; blood) of the same molecule?
Answer: The value was “normalized the expression level of apelin in the blood; also recorded: enhanced expression of apelin in the blood”.

Question: What about the “neutrophils in whole blood (flow cytometry)” value ([2]; blood) of the same molecule?
Answer: The value was “returned decreased T cells and increased neutrophils towards the normal level”.

Question: And the “apelin expression in lung tissue (immunofluorescence)” value ([2]; lung)?
Answer: The value was “normalized the apelin expression in the lung tissues; also recorded: increased apelin expression towards control levels”.

Question: And the “pathological features of lung (histology, Masson's trichrome)” value ([2]; lung)?
Answer: Its value is “completely or partially abolished”.

Question: What about the “expression of IL-6 in lung (immunohistochemistry)” value ([3]; 3 doses, after Poly(I:C)) of the same molecule?
Answer: The value was “reduced the expression of IL-6”.

Question: What about the “frequencies of neutrophils in the lung (immunohistochemistry)” value ([3]; 3 doses, after Poly(I:C)) of the same molecule?
Answer: Its value is “lowered the frequencies of neutrophils in the lung”.

Question: What about the “inflammatory indices overall (flow cytometry of blood and lung)” value ([3]; 3 doses, after Poly(I:C)) of the same molecule?
Answer: The value was “reversed all these inflammatory indices and partially re-established homeostasis”.

Question: What about the “lung structural damage and symptoms (inflammatory infiltrate, fibrosis, hypertrophy, pulmonary edema; H&E histology)” value ([3]; 3 doses, after Poly(I:C)) of the same molecule?
Answer: Its value is “improves lung structure and function; also recorded: totally or partially reversed and returned to the level and condition of the normal”.

Question: And the “level of proinflammatory cytokines in blood (IL-6, IFNγ, TNFα)” value ([3]; blood)?
Answer: Its value is “reducing the number of neutrophils and monocytes as well as the level of proinflammatory cytokines significantly”.

Question: What about the “number of neutrophils and monocytes in blood (flow cytometry)” value ([3]; blood) of the same molecule?
Answer: Its value is “reducing the number of neutrophils and monocytes”.

Question: And the “lymphocyte frequencies in blood (flow cytometry)” value ([3]; blood, p<0.01)?
Answer: The value was “enhanced the rate of lymphocyte frequencies markedly”.

Question: And the “number of infiltrating neutrophils and macrophages in lung (flow cytometry)” value ([3]; lung)?
Answer: The value was “downregulated the number of infiltrating neutrophils and macrophages markedly”.

Question: What about the “level of cytokines in lung (flow cytometry)” value ([3]; lung, p<0.05) of the same molecule?
Answer: Its value is “reduced the level of cytokines significantly”.

Question: And the “IL-6 production in lung tissue” value [4, 5]?
Answer: Its value is “further down regulate IL-6 production”.

Question: And the activated infiltrating leukocytes [4, 5]?
Answer: Its activated infiltrating leukocytes is “decreased activated infiltrating leukocytes”.

Question: And the “destruction of lung (H&E)” value [4, 6]?
Answer: Its value is “able to prevent further destruction of lung”.

Question: What about the “frequencies of T cells (lymphopenia) in peripheral blood and lung tissue” value [4, 6] of the same molecule?
Answer: The value was “able to reinstate the frequencies of T cells”.
